pIC50: −log10 of the molar value.
What was measured:
[1] = tested on: Mahlavu cells; details: 48 h, CCK-8; for effect on viability of Mahlavu cells, in words: 100 µM
Description: (§1) The cytotoxic activities of the newly synthesized amido-substituted triazolopyrrolo [2,1-c][1,4]benzodiazepines PBDT-7a–k were tested against Mahlavu and MRC-5 cells. After incubation of the cells with the compounds at concentrations of 3.12, 6.25, 12.50, 25.0, 50.0 and 100 µM for 48 h, the cell growth and viability were assessed by using CCK-8 assay.
(§2) Human hepatocellular carcinoma (Mahlavu) epithelial cells were used for cell culture experiments. Cells were cultured with 90% Dulbecco’s modified Eagle’s medium with 10% fetal bovine serum, 100 U/mL penicillin, and 100 μg/mL streptomycin. The cells were placed in an incubator to maintain high humidity, a temperature of 37 °C, and 5% CO2 for cell culture experiments. Cells were routinely sub-passaged in a 1:4 to 1:6 split using 0.25% trypsin.
(§3) The cell viability was determined using a CCK-8 assay following the manufacturer’s instructions. Mahlavu cells and MRC-5 cells were seeded in 96-well plates and allowed to attach overnight at 37 °C. Cells were treated with PBDT-7a–k in 0.1% FBS MEM or DMEM (100 μL/well), and the cells were incubated for 48 h in a humidified atmosphere. After the incubation period, 10 μL of cell Counting Kit-8 solution was added to the medium, and the cells were incubated for an additional 1–4 h in the incubator. The absorbance at 450 nm was then measured using a microplate reader. The IR was calculated using the following equation: IR = [1 − (A value for the treated samples − A value for the blank samples)/(A value for the control samples − A value for the blank samples)] × 100%. The assays were performed in triplicate and repeated at least twice.
(§4) Mahlavu cells were treated with PBDT-7 series compounds for 48 h, and survival was assessed using a CCK-8 assay (mean ± SEM, n = 6).

[2] = tested on: MRC-5 cells; assay: CCK-8 cytotoxicity assay, MRC-5 cells; details: 48 h
Description: (§5) After incubation of the cells with the compounds at concentrations of 3.12, 6.25, 12.50, 25.0, 50.0 and 100 µM for 48 h, the cell growth and viability were assessed by using CCK-8 assay.
(§6) Human fibroblast cells (MRC-5) cells were used for cell culture experiments. Cells were cultured with 90% Eagle’s minimum essential medium with 2 mM L-glutamine and Earle’s BSS adjusted to contain 1.5 g/L sodium bicarbonate, 0.1 mM non-essential amino acids, 1.0 mM sodium pyruvate with 10% fetal bovine serum, 100 U/mL penicillin, and 100 μg/mL streptomycin. The cells were placed in an incubator to maintain high humidity, 37 °C, and 5% CO2 for the cell culture experiments. Cells were routinely sub-passaged in a 1:2 to 1:5 split using 0.25% trypsin.
(§7) The cell viability was determined using a CCK-8 assay following the manufacturer’s instructions. Mahlavu cells and MRC-5 cells were seeded in 96-well plates and allowed to attach overnight at 37 °C. […] After the incubation period, 10 μL of cell Counting Kit-8 solution was added to the medium, and the cells were incubated for an additional 1–4 h in the incubator. The absorbance at 450 nm was then measured using a microplate reader. The IR was calculated using the following equation: IR = [1 − (A value for the treated samples − A value for the blank samples)/(A value for the control samples − A value for the blank samples)] × 100%. The assays were performed in triplicate and repeated at least twice.

[3] = tested on: Mahlavu cells; assay: cells; details: Homo sapiens, 48 h; for pIC50: read-out: IC50 for Mahlavu cells; for viability at 100 µM: read-out: percentage of viable Mahlavu cells (cell viability)
Description: as §1, §2, §3, §4

[4] = in vitro; details: human
Description: as §5, §6, §7

## O=C(Nc1nnc2n1-c1ccccc1C(=O)N1CCC[C@@H]21)c1cccc(C(F)(F)F)c1 [PBDT-7i, N-((13aS)-9-Oxo-11,12,13,13a-tetrahydro-9H-benzo[e]pyrrolo[1,2-a][1,2,4]triazolo[3,4-c][1,4]diazepin-3-yl)-3-(trifluoromethyl)benzamide]
[1]
  inhibition of Mahlavu cells, in words: selectively inhibit the growth
[2]
  toxicity to MRC-5 (normal) cells, in words: low-toxic
[3]
  pIC50: 4.30
  viability at 100 µM: 2%

## O=C(Nc1nnc2n1-c1ccccc1C(=O)N1CCC[C@@H]21)c1cccc(F)c1 [PBDT-7d, 3-Fluoro-N-((13aS)-9-oxo-11,12,13,13a-tetrahydro-9H-benzo[e]pyrrolo[1,2-a][1,2,4]triazolo[3,4-c][1,4]diazepin-3-yl)benzamide]
other
  melting point: 159 to 160 °C
[3]
  viability at 100 µM: ~61%

## O=C(Nc1nnc2n1-c1ccccc1C(=O)N1CCC[C@@H]21)c1ccccc1F [PBDT-7c, 2-Fluoro-N-((13aS)-9-oxo-11,12,13,13a-tetrahydro-9H-benzo[e]pyrrolo[1,2-a][1,2,4]triazolo[3,4-c][1,4]diazepin-3-yl)benzamide]
[1]
  effect on viability of Mahlavu cells, in words: little effect

## COc1cccc(C(=O)Nc2nnc3n2-c2ccccc2C(=O)N2CCC[C@@H]32)c1 [PBDT-7f, 3-Methoxy-N-((13aS)-9-oxo-11,12,13,13a-tetrahydro-9H-benzo[e]pyrrolo[1,2-a][1,2,4]triazolo[3,4-c][1,4]diazepin-3-yl)benzamide]
other
  melting point: 168 to 170 °C
[3]
  viability at 100 µM: 37%

## O=C(Nc1nnc2n1-c1ccccc1C(=O)N1CCC[C@@H]21)c1cccnc1 [PBDT-7j, N-((13aS)-9-Oxo-11,12,13,13a-tetrahydro-9H-benzo[e]pyrrolo[1,2-a][1,2,4]triazolo[3,4-c][1,4]diazepin-3-yl)nicotinamide]
other
  melting point: 225 °C
[3]
  viability at 100 µM: > 75%
[4]
  viability at 48 h, 100 µM: > 75%

## O=C(Nc1nnc2n1-c1ccccc1C(=O)N1CCC[C@@H]21)c1cccc(Cl)c1 [PBDT-7h, 3-Chloro-N-((13aS)-9-oxo-11,12,13,13a-tetrahydro-9H-benzo[e]pyrrolo[1,2-a][1,2,4]triazolo[3,4-c][1,4]diazepin-3-yl)benzamide]
[1]; 50 µM
  survival rate of Mahlavu cells: below 50%
[1]
  inhibition of Mahlavu cells, in words: potent inhibitor
[2]
  toxicity to MRC-5 (normal) cells, in words: highly toxic

## CC(C)(C)C(=O)Nc1nnc2n1-c1ccccc1C(=O)N1CCC[C@@H]21 [PBDT-7a, ((13aS)-9-Oxo-11,12,13,13a-tetrahydro-9H-benzo[e]pyrrolo[1,2-a][1,2,4]triazolo[3,4-c][1,4]diazepin-3-yl)pivalamide]
other
  melting point: 213 to 215 °C
[3]
  viability at 100 µM: > 75%
[4]
  viability at 48 h, 100 µM: > 75%

## N#Cc1cccc(C(=O)Nc2nnc3n2-c2ccccc2C(=O)N2CCC[C@@H]32)c1 [PBDT-7g, 3-Cyano-N-((13aS)-9-oxo-11,12,13,13a-tetrahydro-9H-benzo[e]pyrrolo[1,2-a][1,2,4]triazolo[3,4-c] [1,4]diazepin-3-yl)benzamide]
other
  melting point: 245 to 246 °C
[3]
  pIC50: 4.30
  viability at 100 µM: 36%

## O=C(Nc1nnc2n1-c1ccccc1C(=O)N1CCC[C@@H]21)c1cccs1 [PBDT-7k, N-((13aS)-9-Oxo-11,12,13,13a-tetrahydro-9H-benzo[e]pyrrolo[1,2-a][1,2,4]triazolo[3,4-c][1,4]diazepin-3-yl)thiophene-2-carboxamide]
other
  melting point: 185 to 186 °C
[3]
  viability at 100 µM: > 75%
[4]
  viability at 48 h, 100 µM: > 75%

## O=C(Nc1nnc2n1-c1ccccc1C(=O)N1CCC[C@@H]21)c1ccc(F)cc1 [PBDT-7e, 4-Fluoro-N-((13aS)-9-oxo-11,12,13,13a-tetrahydro-9H-benzo[e]pyrrolo[1,2-a][1,2,4]triazolo[3,4-c][1,4]diazepin-3-yl)benzamide]
[1]
  effect on viability of Mahlavu cells, in words: little effect

## O=C(Nc1nnc2n1-c1ccccc1C(=O)N1CCC[C@@H]21)c1ccccc1 [PBDT-7b, N-((13aS)-9-Oxo-11,12,13,13a-tetrahydro-9H-benzo[e]pyrrolo[1,2-a][1,2,4]triazolo[3,4-c][1,4]diazepin-3-yl)benzamide]
other
  melting point: 173 to 175 °C
[3]
  viability at 100 µM: > 75%
[4]
  viability at 48 h, 100 µM: > 75%

— publication PMC6269039, “Synthesis and Cytotoxicity Testing of New Amido-Substituted Triazolopyrrolo[2,1-c][1,4]benzodiazepine (PBDT) Derivatives” (Molecules, 2012)
